Results taken from patent US20230312587A1, “PTERIDINONE COMPOUNDS AND USES THEREOF” (Vertex Pharmaceutical Incorporated, priority 2018, published 2023).
pEC50, pIC50, pKi: −log10 of the molar value.

Assays:
[1] = system: Colo205-TCF/LEF-Luciferase (Luc) tumor; test: In vivo inhibition of TCF/LEF reporter activity in Colo-205 tumors; design: concentration or dose not given beside the values; conditions: TCF/LEF luciferase reporter in Colo-205 tumors, nu/nu mice, oral gavage
In short: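 Female nu/nu mice carried subcutaneous Colo205-TCF/LEF-luciferase tumours (200–500 mm^3), n=4 per group. Compound was given by oral gavage in 1:3:5:1 EtOH:DMSO:PEG-400:H2O at 10 ml/kg, with vehicle as control. Luciferase activity in tumour lysates (Steady-Glo) was normalised to BCA protein.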

[2] = system: non-small cell lung cancer (NSCLC) adenocarcinoma line D33966; test: In vivo efficacy, NSCLC patient derived xenograft OD33966; design: species or system nu/nu mice; conditions: Mus musculus, 336 h; NSCLC PDX OD33966, oral, 100 mpk qd, treatment day 14; read-out: % TGI
Experimental: Female immune deficient mice (Charles River, 4-6 wks age) were anesthetized with Ketamine-Xylazine (140 mg/kg-14 mg/kg ip) and shaved. Puralube eye ointment was applied to the eyes to prevent desiccation of the corneas. Betadine and 70% ethanol was applied to the shaved location to sterilize the skin at the location of the incision. The animals were placed in a biosafety cabinet for the duration of the surgery. Using scissors, an 8 to 10 mm incision was made in the lateral flank of the skin. A tumor fragment weighing between 50 and 150 mg was placed under the skin at the incision site using forceps, and staples were used to close the incision. The staples were removed 5 to 7 days after surgery. Starting approximately two weeks after implantation, animals were weighed, and tumors were measured using caliper twice weekly. Tumor volume was calculated using the formula: volume=length×width^2×0.52.
Compound administration began when xenografts reached approximately 100-300 mm3 and continued until control xenografts reached […] of the animal's body weight. Test compounds were administered orally by gastric gavage. Percent tumor growth inhibition (TG) was calculated on the indicated treatment day. Percent TGI is defined as: [1−(del T/del C)]×100%, where del T is the final minus initial average volumes of the treated group, and del C is the final minus initial average volumes of the control group. […] The tested compounds were administered orally. Vehicle control consisted of either 0.5% methylcellulose/0.1% sodium lauryl sulfate or 20% captisol. Tumor volumes were determined by caliper measurement twice a week.

[3] = system: β-catenin-TCF-mediated reporter transcription activity in Colo 205 cells; test: Colo 205 reporter assay (TCF/LEF luciferase); assay type: cell-based; conditions: Homo sapiens, COLO 205, 5 h, Colo 205 TCF/LEF luciferase reporter, five hours after addition of compound; read-out: TCF reporter Colo205 IC50
In short: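 Luciferase signal from a TCF/LEF-driven reporter, stably integrated in Colo 205 colon cancer cells, was measured 5 h after compound addition.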

[4] = system: ER stress marker proteins XBP1(s) and ATF4; test: ER stress marker immunoblot in parental HepG2 vs WFS1 KO cells; assay type: cell-based; conditions: 6 hours, immunoblotting
Excerpt: (§1) In contrast WFS1 depletion had no effect on thapsigargin induced changes in global gene expression (FIG. 7.)

[5] = system: global gene expression in HepG2 cells; test: Global gene expression changes in HepG2 vs WFS1 depleted cells; assay type: cell-based; conditions: HepG2, 6 hours of exposure
Excerpt: as §1

Colo-205 cells = test: Calcium flux assay (FLIPR Calcium 5); assay type: cell-based; conditions: Homo sapiens, COLO 205, 0.6 h, FLIPR Calcium 5, measured over 36 minutes
Experimental: Compounds described herein induced ER stress by causing intracellular calcium flux. Calcium flux was measured in Colo-205 cells using the FLTPR® Calcium 5 Assay Kit according to manufacter's protocol (Molecular Devices, Cat. #R8186) on a FLIPR3 system (Molecular Devices). Calcium flux is measured over 36 minutes. The Colo-205 calcium flux assay data are summarized in Table 47: A<0.6 μM; 0.6 μM≤B<2.0 μM; 2.0 μM≤C<10.0 μM; D≥10.0 μM.

HepG2 XBP1(u)-Luc cells = test: HepG2 XBP1 reporter assay; assay type: cell-based; conditions: Homo sapiens, 6 h
Experimental: HepG2 hepatoma cells were transduced with a retrovirus encoding the cDNA for unspliced (u) XBP1, which contains a non-processed intron, fused to the cDNA for firefly luciferase. Upon induction of ER stress, the non-processed intron of XBP1(u) is spliced out by active IRE1alpha endonuclease. The resulting spliced (s) XBP1 is now in frame with luciferase which causes the production of active luciferase protein, resulting in bioluminescence
HepG2 XBP1(u)-Luc cells were plated […] Cultured cells with a stably transfected reporter construct were plated at approximately 30,000 cells per well into 96 well multi-well plates for twenty four hours. The testing compounds were then added to the wells in 3-fold serial dilutions using a twenty seven micromolar top concentration. A series of control wells for each cell type received only compound solvent. Six hours after the addition of compound, reporter activity for luciferase was assayed, by addition of the SteadyGlo luminescence reagent (Promega). The reporter luminescence activity was measured using Pherastar plate reader (BMG Labtech). Readings was normalized to DMSO only treated cells, and normalized activities were then used in the IC50 calculations. The HepG2 XBP1 reporter assay data are summarized in Table 47: A<0.6 μM; 0.6 μM≤B<2.0 μM; 2.0 μM≤C<10.0 μM; D≥10.0 μM.

[6] = target: HEK293 membranes over-expressing WFS-1 (Homo sapiens (Human), UniProt O76024); test: Radioligand displacement assay (tritiated Compound 136 probe); assay type: binding; conditions: displacement of tritiated Compound 136
Chain of HEK293 membranes over-expressing WFS-1 (O76024 whole entry): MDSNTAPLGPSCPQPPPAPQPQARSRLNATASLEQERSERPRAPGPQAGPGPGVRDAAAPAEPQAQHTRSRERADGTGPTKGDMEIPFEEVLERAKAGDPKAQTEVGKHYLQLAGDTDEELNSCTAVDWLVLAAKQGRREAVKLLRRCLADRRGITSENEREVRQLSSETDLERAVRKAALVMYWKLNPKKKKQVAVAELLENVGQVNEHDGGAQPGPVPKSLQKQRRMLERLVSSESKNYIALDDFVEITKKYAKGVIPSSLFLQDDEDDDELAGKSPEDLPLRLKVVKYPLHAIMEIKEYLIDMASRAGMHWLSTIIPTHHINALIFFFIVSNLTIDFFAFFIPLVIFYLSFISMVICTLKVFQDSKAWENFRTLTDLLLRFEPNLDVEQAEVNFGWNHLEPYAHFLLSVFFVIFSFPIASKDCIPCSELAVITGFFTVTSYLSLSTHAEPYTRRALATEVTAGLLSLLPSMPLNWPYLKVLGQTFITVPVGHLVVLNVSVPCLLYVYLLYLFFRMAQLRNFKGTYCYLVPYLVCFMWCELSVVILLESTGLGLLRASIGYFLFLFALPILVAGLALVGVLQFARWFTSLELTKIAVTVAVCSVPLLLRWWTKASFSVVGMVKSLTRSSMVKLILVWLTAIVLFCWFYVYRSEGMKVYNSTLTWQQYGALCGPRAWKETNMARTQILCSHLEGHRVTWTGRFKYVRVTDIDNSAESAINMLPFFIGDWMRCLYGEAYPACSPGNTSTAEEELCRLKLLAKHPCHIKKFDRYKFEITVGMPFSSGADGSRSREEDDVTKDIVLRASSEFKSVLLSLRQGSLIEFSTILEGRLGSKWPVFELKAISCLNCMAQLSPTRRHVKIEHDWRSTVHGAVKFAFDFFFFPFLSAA
In short: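 WFS-1-overexpressing HEK293 membranes were preincubated 10 min with compound, then tritiated probe was added for 90 min at room temperature. Bound probe was collected by filtration on PEI-pretreated GF/B filters, washed and scintillation-counted. IC50 came from a 3-parameter fit of bound probe vs compound concentration.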

Plk1 = Plk1 (Homo sapiens (Human), UniProt P53350); test: PLK1 inhibition assay (radioactive-phosphate incorporation); assay type: biochemical; conditions: Ki(app), read-out: PLK1 - 33P.ENZ - CB 10 Ki
Chain of Plk1 (P53350 whole entry, species assumed): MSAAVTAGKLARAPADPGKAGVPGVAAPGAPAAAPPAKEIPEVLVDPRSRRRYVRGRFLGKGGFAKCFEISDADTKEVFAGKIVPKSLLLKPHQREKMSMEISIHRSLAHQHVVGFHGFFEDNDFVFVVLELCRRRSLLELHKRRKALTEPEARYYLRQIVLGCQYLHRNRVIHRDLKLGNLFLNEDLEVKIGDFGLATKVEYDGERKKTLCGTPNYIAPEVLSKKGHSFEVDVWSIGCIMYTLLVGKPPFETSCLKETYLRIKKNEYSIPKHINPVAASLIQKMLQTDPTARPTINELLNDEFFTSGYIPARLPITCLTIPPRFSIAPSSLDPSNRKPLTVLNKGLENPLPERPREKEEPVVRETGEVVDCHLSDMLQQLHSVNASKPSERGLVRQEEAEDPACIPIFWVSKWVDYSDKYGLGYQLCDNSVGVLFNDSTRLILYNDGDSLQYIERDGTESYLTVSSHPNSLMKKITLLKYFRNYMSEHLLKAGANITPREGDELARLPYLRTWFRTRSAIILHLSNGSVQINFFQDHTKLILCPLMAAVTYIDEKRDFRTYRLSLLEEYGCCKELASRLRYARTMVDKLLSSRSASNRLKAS
Experimental: Compounds were screened for their ability to inhibit Plk1 using a radioactive-phosphate incorporation assay. Assays were carried out in a mixture of 25 mM HEPES (pH 7.5), 10 mM MgCl2, 25 mM NaCl, and 2 mM DTT. Final substrate concentrations were 20 μM [γ-33P]ATP (35mCi 33P ATP/mmol ATP, Perkin Elmer/Sigma Chemicals) and 9 uM Sam68 protein. Assays were carried out at room temperature in the presence of 15 nM Plk1. An assay stock buffer solution was prepared containing all of the reagents listed above, with the exception of ATP and the test compound of interest. 0.75 μL of DMSO stock containing serial dilutions of the test compound (typically starting from a final concentration of 10 μM with 2-fold serial dilutions—final DMSO concentration 1.5%) was placed in a 384 well plate followed by addition of 25 μL [γ-33P]ATP (final concentration 20 μM). The reaction was initiated by addition of 25 μL of the assay stock buffer solution.
The reaction was stopped after 45 minutes by the addition of 25 μL 30% trichloroacetic acid (TCA) containing 10 mM cold ATP. The entire quenched reaction was transferred to a 384-well glass fiber filter plate (Millipore, Cat no. MZFBNOW50). The plate was washed with 3×5% TCA. After drying, 40 μL of Ultima Gold liquid scintillation cocktail (Perkin Elmer) was added to the well prior to scintillation counting in a PerkinElmer TopCount.
After removing mean background values for all of the data points, Ki(app) data were calculated from non-linear regression analysis of the initial rate data using the Prism software package (GraphPad Prism, GraphPad Software, San Diego California, USA).

C[C@H]1C(=O)Nc2cnc(NCc3cnn(Cc4cc(F)c(F)c(F)c4)c3)nc2N1C [Compound 42, (7S)-7,8-dimethyl-2-(((1-(3,4,5-trifluorobenzyl)-1H-pyrazol-4-yl)methyl)amino)-7,8-dihydropteridin-6(5H)-one]
Percent Remaining Activity at 8 hrs after Dosing [1]: 20%
inhibition in vivo at 100 mg/kg [2]: 79.6%
pIC50 [3]: > 6.52

C/C=C(/C)C(=O)O[C@H]1C(C)=C2[C@H]([C@@H]1OC(=O)CCCCCCC)[C@@](C)(OC(C)=O)C[C@H](OC(=O)CCC)[C@@]1(O)[C@H]2OC(=O)[C@@]1(C)O [thapsigargin, reference compound]
effect of WFS1 depletion on induction of XBP1(s) and ATF4 [4]: much lesser effect
effect of WFS1 depletion on changes in global gene expression [5]: no effect

Cc1nc(N[C@H]2C[C@H](OCc3cc(F)c(F)c(F)c3)C2)nc2c1NC(=O)[C@H](C)N2C [Compound 254, (7S)-4,7,8-trimethyl-2-((trans-3-((3,4,5-trifluorobenzyl)oxy)cyclobutyl)amino)-7,8-dihydropteridin-6(5H)-one]
pEC50 (Colo-205 cells): 5.70 to 6.22
pIC50 (HepG2 XBP1(u)-Luc cells): > 6.22
pIC50 [6]: 6.22 to 7.22
pKi (Plk1): < 5.40
pIC50 [3]: > 6.52
